Experimental data as given in BindingDB's records for doi:10.1021/acschembio.6b00609 (University of Manchester, 2016).
pIC50: −log10 of the molar value.

What follows are compounds tested against Poly(ADP-ribose) glycohydrolase (Homo sapiens, UniProt Q86W56) (assay: PARG Biochemical Assay). Details: pH 7.4.
Method: Briefly, PARG in vitro assays were conducted in a total volume of 15 μL in a standard 384-well format. A total of 5 μL of human full length PARG (AstraZeneca), used at a final reaction concentration of 65 pM, was added to 5 μL of Bt-NAD ribosylated PARP1 substrate (AstraZeneca) at a final reaction concentration of 4.8 nM in assay buffer (50 mM Tris pH 7.4, 0.1 mg mL−1 BSA, 3 mM EDTA, 0.4 mM EGTA, 1 mM DTT, 0.01% Tween 20, 50 mM KCl). The reaction was incubated at RT for 10 min, and then 5 μL of detection reagent was added. Detection reagent consists of 42 nM mAb anti-6HIS XL665 (CisBio: 61HISXLB) and2.25 nM streptavidin europium cryptate (CisBio: 610SAKLB), both at 3× working stock concentrations (final concentrations of 14 nM and 0.75 nM, respectively), in detection buffer (50 mM Tris pH 7.4, 0.1 mg mL−1 BSA and 100 mM KF). Following incubation at RT for 60 min in the dark, TR-FRET signal was measured at λEx 340 nm and λEm 665 nm and λEm

Chain of Poly(ADP-ribose) glycohydrolase (Q86W56 whole entry): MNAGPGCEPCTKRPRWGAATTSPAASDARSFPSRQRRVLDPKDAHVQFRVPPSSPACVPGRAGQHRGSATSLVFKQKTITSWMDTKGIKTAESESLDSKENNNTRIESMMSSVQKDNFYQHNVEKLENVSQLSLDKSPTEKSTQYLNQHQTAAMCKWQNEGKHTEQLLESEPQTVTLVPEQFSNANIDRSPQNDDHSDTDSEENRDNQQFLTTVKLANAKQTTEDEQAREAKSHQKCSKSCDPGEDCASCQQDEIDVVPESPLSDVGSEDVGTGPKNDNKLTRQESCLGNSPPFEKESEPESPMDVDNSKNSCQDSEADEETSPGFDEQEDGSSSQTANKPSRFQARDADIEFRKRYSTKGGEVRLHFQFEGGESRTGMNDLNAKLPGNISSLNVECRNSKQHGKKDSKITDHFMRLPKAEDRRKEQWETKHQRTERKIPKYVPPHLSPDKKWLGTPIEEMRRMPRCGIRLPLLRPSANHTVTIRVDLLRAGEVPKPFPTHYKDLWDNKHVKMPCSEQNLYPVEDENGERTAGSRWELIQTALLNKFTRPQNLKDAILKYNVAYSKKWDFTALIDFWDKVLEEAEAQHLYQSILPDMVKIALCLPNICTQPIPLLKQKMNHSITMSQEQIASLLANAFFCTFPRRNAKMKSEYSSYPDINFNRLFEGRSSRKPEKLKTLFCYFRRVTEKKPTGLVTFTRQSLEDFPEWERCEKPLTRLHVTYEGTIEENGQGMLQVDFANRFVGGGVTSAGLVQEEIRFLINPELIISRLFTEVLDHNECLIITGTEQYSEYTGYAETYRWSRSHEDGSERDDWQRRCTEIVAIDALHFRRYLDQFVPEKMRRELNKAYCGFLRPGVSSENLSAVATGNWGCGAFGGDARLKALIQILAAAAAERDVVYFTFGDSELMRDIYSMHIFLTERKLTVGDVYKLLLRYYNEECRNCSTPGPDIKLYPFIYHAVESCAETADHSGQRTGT

Structure (SMILES) | pIC50
Cc1cc(Cn2c(=O)n(Cc3cnc(C)s3)c(=O)c3cc(S(=O)(=O)NC4(C)CC4)ccc32)n(C)n1 [PDD00017273 (4)] | 7.59
CC(C)(C)NS(=O)(=O)c1ccc2c(c1)C(=O)c1ccccc1C2=O [PDD00013907 (1)] | < 4.22
Cc1nc(C)c(Cn2c(=O)n(-c3ncns3)c3cc(S(=O)(=O)NC4(C)CC4)ccc32)s1 [PDD00017238 (5)] | 7.40
Cc1nc(C)c(Cn2c(=O)n(-c3ncns3)c3cc(S(=O)(=O)N(C)C4(C)CC4)ccc32)s1 [PDD00031705 (7)] | < 4.22
Cc1cc(Cn2c(=O)n(Cc3cnc(C)s3)c(=O)c3cc(S(=O)(=O)N(C)C4(C)CC4)ccc32)n(C)n1 [PDD00031704 (6)] | < 4.22
